These results are taken from ChEMBL document CHEMBL1250447, “An integrated platform of genomic assays reveals small-molecule bioactivities” (Nat Chem Biol, 2008).

The source made the active and inactive calls. The rule behind the calls is not given here.

Format in all cases: functional, organism-based
Experiment [1] relates to Saccharomyces cerevisiae. Description: Antimicrobial activity against glc7-129 allele containing Saccharomyces cerevisiae harboring cdc28-as transfected with 2 uM expression vector TEplac195 at 2.5 nM using deletion pool construction.
Experiment [2] relates to Saccharomyces cerevisiae. Description: Antimicrobial activity against glc7-127 allele containing Saccharomyces cerevisiae harboring cdc28-as transfected with 2 uM expression vector TEplac195 at 2.5 nM using deletion pool construction.
The test system of experiment [3] is Saccharomyces cerevisiae. Description: Suppression of […] gene in Saccharomyces cerevisiae harboring cdc28-as transfected with 2 uM expression vector TEplac195 at 5 uM using multicopy pool construction by TAG microarray.
In experiment [4] the test system is Saccharomyces cerevisiae. Description: Suppression of […] gene in Saccharomyces cerevisiae harboring cdc28-as at 2.5 uM using deletion pool construction by TAG microarray.
For experiment [5], the system named is Saccharomyces cerevisiae. In words: Suppression of HEM1 gene in Saccharomyces cerevisiae harboring cdc28-as transfected with 2 uM expression vector TEplac195 at 0.015% using multicopy pool construction by TAG microarray.
The test system of experiment [6] is Saccharomyces cerevisiae. Description: Suppression of HEM1 gene in Saccharomyces cerevisiae harboring cdc28-as at 0.002% using deletion pool construction by TAG microarray.
Experiment [7] deals with Saccharomyces cerevisiae. In words: Suppression of TUB1 gene in Saccharomyces cerevisiae harboring cdc28-as transfected with 2 uM expression vector TEplac195 at 33.2 uM using multicopy pool construction by TAG microarray.
In experiment [8] the test system is Saccharomyces cerevisiae. In words: Suppression of TUB1 gene in Saccharomyces cerevisiae harboring cdc28-as at 15 uM using deletion pool construction by TAG microarray.
Experiment [9] concerns Saccharomyces cerevisiae. In words: Suppression of TUB2 gene in Saccharomyces cerevisiae harboring cdc28-as transfected with 2 uM expression vector TEplac195 at 33.2 uM using multicopy pool construction by TAG microarray.
Experiment [10] has as its system Saccharomyces cerevisiae. Description: Suppression of TUB2 gene in Saccharomyces cerevisiae harboring cdc28-as at 15 uM using deletion pool construction by TAG microarray.
The subject of experiment [11] is Saccharomyces cerevisiae. Description: Antimicrobial activity against glc7-129 allele containing Saccharomyces cerevisiae harboring cdc28-as transfected with 2 uM expression vector TEplac195 at 25 nM using deletion pool construction.
Experiment [12] relates to Saccharomyces cerevisiae. Description: Antimicrobial activity against glc7-127 allele containing Saccharomyces cerevisiae harboring cdc28-as transfected with 2 uM expression vector TEplac195 at 25 nM using deletion pool construction.
Experiment [13] has as its system Saccharomyces cerevisiae. In words: Suppression of CSH1 gene in Saccharomyces cerevisiae harboring cdc28-as transfected with 2 uM expression vector TEplac195 at 500 nM using multicopy pool construction by TAG microarray.
Experiment [14] deals with Saccharomyces cerevisiae. Description: Suppression of CDC28 gene in Saccharomyces cerevisiae harboring cdc28-as transfected with 2 uM expression vector TEplac195 at 500 nM using multicopy pool construction by TAG microarray.
Experiment [15] concerns Saccharomyces cerevisiae. Description: Suppression of IFA38 gene in Saccharomyces cerevisiae harboring cdc28-as transfected with 2 uM expression vector TEplac195 at 500 nM using multicopy pool construction by TAG microarray.
Experiment [16] relates to Saccharomyces cerevisiae. Description: Suppression of TOS1 gene in Saccharomyces cerevisiae harboring cdc28-as transfected with 2 uM expression vector TEplac195 at 500 nM using multicopy pool construction by TAG microarray.

For the compound `C[C@@]12C(=O)OC(=O)[C@]1(C)[C@H]1CC[C@@H]2O1`, in experiment [1], the result was inactive. Further, the result in [2] was Active.
Turning to `C/C1=C/C(=O)O[C@@H]2C[C@@H](CC[C@H](C)/C=C\C=C\CC1)O[C@@](O)([C@@H]1CSC(=O)N1)C2`, the result in [3] and in experiment [4] was Active.
Take `COS(C)(=O)=O`: the outcome in [5] and in experiment [6] was Active.
On to `COC(=O)Nc1nc2cc(C(=O)c3cccs3)ccc2[nH]1`, for which the outcome in experiment [7], in experiment [8], in experiment [9] and in experiment [10] was Active.
With `COC[C@@H]([C@H](O)[C@H](O)C(=O)NCC[C@H](C)c1nc(/C=C/C[C@@H]2O[C@]3(C[C@@H](O)[C@@H]2C)O[C@H]([C@H](C[C@H](O)[C@H](C)[C@H](O)[C@H](C)/C=C(C)/C(C)=C/C=C/C(C)=C\C#N)OC)[C@H](OP(=O)(O)O)C3(C)C)co1)N(C)C`, in [11], the outcome was Active. Also, the outcome in experiment [12] was inactive.
For `CC(C)(C)n1nc(Cc2cccc3ccccc23)c2c(N)ncnc21`, the outcome in experiment [13], in experiment [14], in experiment [15] and in experiment [16] was Active.
